From US20100003287A1, “Compositions and Methods Relating to Treatment of Cancer and Infectious Diseases” (THE PROVOST, FELLOWS AND SCHOLARS OF THE COLL. OF THE HOLY …, priority 2005, published 2010)

Experiments:
[1] = test system: immature bone marrow-derived DC; assay: DC activation by TLR ligands, cytokine ELISA; settings: 1 ng/ml-10 μg/ml TLR ligand, 24 h
Protocol: After 24 h, supernatants were removed and IL-10, IL-12p40 and IL-12p70 concentrations determined by ELISA. NT, not tested (FIG. 9).

B16 tumour cells [2] = assay: Direct tumour therapy with CpG and Celecoxib; assay type: in vivo, C57BL/6 mice; settings: CpG 20 μg, Celecoxib 500 μg or both s.c. at tumour site, days 3, 5 and 7
Protocol: C57BL/6 mice were challenged with 2×10^5 tumour cells s.c. and injected s.c. on days 3, 5 and 7 with either CpG (10 or 20 μg), the Cox-2 inhibitor Celecoxib (100 or 500 μg) or a combination of both at the tumour site. Mice were routinely monitored for tumour growth and survival. Tumour size was measured in two dimensions by callipers and determined by the following formula: (width^2×length)×π/6 where width is the lesser value. Mice were killed when tumour a length measured greater than 15 mm.
Mice were routinely monitored for tumour growth (FIG. 19).
Tumour volumes were routinely monitored (FIG. 20).
C57BL/6 mice were challenged with 2×10^5 tumour cells s.c. and injected s.c. on days 3, 5 and 7 with either CpG (20 μg), the Cox-2 inhibitor Celecoxib (500 μg) or a combination of both at the tumour site. Mice were routinely monitored for tumours and survival (FIG. 21).

[3] = test system: IFN-gamma- and IL-10-secreting T cells; assay: DC transfer experiment (KLH, CpG and inhibitors), T cell responses in vivo; design: species or system C57BL/6 mice; settings: DC with KLH 5 μg, CpG 5 μg and inhibitors (NS-398 5 μM, SB203580 1 μM, U0126 5 μM) into footpad; day 5 cells restimulated with KLH
Protocol: 2.5×10^5 treated cells were injected into each footpad. Popliteal lymph nodes and spleens were removed after 5 days, and single cell suspensions were restimulated with KLH (2, 10, 50 μg/ml). S/N were removed after 3 days, and aliquots were measured for IFN-gamma and IL-10 by ELISA.
2.5×10^5 treated cells were injected into each footpad of 57BL-6 mice. Popliteal lymph nodes and spleens were removed after 5 days, and single cell suspensions were restimulated with KLH (2, 10, 50 μg/ml). Supernatants were removed after 3 days, and IFN-gamma and IL-10 concentrations quantified by ELISA (FIG. 13).

ERK = assay type: cell-based, mice
Protocol: In certain experiments, the ERK or p38 inhibitors were added 1 hr before the TLR ligands. Cell lysates were resolved by SDS-PAGE, transferred to nitrocellulose membranes and blotted with antibodies specific for phospho-p38 (pp38; Cell Signal Technology, Mass., USA), or phospho-ERK (pERK; Santa Cruz Biotechnologies, USA) and a horseradish peroxidase-linked secondary antibody. The nitrocellulose was stripped and probed with antibodies specific for total p38 or total ERK.

[4] = test system: PGE2 production by dendritic cells; assay: TLR agonist induced PGE2 production by DC (ELISA); assay type: cell-based; settings: 24 hours
Protocol: Bone marrow-derived dendritic cells (DC) were stimulated in vitro with CpG (5 μg) or the ERK inhibitor, U0126 (5 μM), or both for 24 hours. Supernatants were removed and PGE2 concentrations determined by ELISA. **p<0.01 CpG+p38 inhibitor versus CpG by ANOVA (FIG. 25).
Bone marrow-derived DC were stimulated with CpG (5 μg) alone or in the presence of the Cox-2 inhibitor, NS-398. After 24 hours, supernatants were removed and concentrations of PGE2 (FIG. 26(a)) were determined by ELISA. *p<0.05 CpG+p38 inhibitor versus CpG by ANOVA.
Supernatants were removed and PGE2 concentrations determined by ELISA. *p<0.05 CpG+p38 inhibitor versus CpG by ANOVA (FIG. 27).

bone marrow-derived DC [5] = settings: for IL-10 production from CpG-ODN- or LPS-stimulated DC: inhibitor 1 h (U0126 1.25-5 μM, SB203580 0.1-10 μM) before CpG-ODN 5 μg/ml or LPS 100 ng/ml, 24 h; for IL-12p70 production from TLR ligand-stimulated DC: inhibitor pre-incubation, LPS or CpG-ODN
Protocol: (§1) Bone-marrow derived immature DC (BMDC) were generated by cultivation of extracted bone marrow cells with GM-CSF (40 ng/ml) for 10 days. BMDC from either BALB/c or C57BL/6 mice were incubated with 1 ng/ml-10 μg/ml of the TLR agonists, Pam3CSK4, Zymosan, LPS, Flagellin, PolylC, CpG-OCDN or medium only.
DC were pre-incubated for 1 h with the MEK 1/2 inhibitor (U0126) and then incubated for 15 min with medium only or with Pam3Cys, Zymosan, LPS, Flagellin, or CpG-ODN (1 or 5 μg/ml). […] DC were stimulated with medium only (0) or for 0.5, 1, 2, 4, 8 or 12 h with LPS (100 ng/ml). […] Cells treated with DMSO were used as negative controls.
Superntants were removed, and aliquots was measured for IL-10, IL-12p70 and IL-6 by ELISA (FIG. 11).

bone marrow-derived DC [6] = assay: Cytokines from DC treated with B16 tumour vaccine, CpG and p38 inhibitor (ELISA); assay type: cell-based; settings: DC with heat shocked and irradiated B16 cells 4 hours, CpG 5 μg, SB 203580 5 μM, 24 hours
Protocol: Supernatants were removed after 24 hours and IL-10, IL-12p40, IL-12p70 and IL-23 concentrations were determined by ELISA. *p<0.05; ***p<0.0001, CpG+p38 inhibitor versus GpG by ANOVA.

spleen mononuclear cells = assay: Spleen cell IFN-gamma and IL-10 after acellular pertussis vaccination; assay type: in vivo, mice; settings: added to acellular pertussis vaccine with CpG 5 μg, SB203580 50 μM
IL-1 beta in lungs = assay: Lung IL-1 beta after B. pertussis challenge of immunized mice; assay type: in vivo; settings: added to acellular pertussis vaccine with CpG 5 μg; SB203580 50 μM; 4 hours after challenge
Bordetella pertussis = assay: Acellular pertussis vaccine, B. pertussis aerosol challenge, lung CFU counts; assay type: in vivo; settings: mice, i.p. 0 and 4 weeks, 0.02 human dose vaccine, CpG 5 μg, SB203580 50 μM; aerosol challenge 2 weeks later
[7] = test system: CD4+ T cells from D011.10 OVA-TCR Tg mice; assay: In vitro activation of OVA-TCR T cells with modulated DC; assay type: cell-based, BALB/c mice; settings: DC pulsed with OVA peptide 5 μg, CpG 10 μg alone or with SB203580 1 or 5 μM, 24 h; T cells:DC 10:1
Protocol: DC from BALB/c were incubated with OVA Class II peptide (5 μg). […] D011.10 OVA-TCR T cells were then added to the BMDC (10:1). Supernatants were removed after 3 and 11 days, and aliquots were measured for IL-10-and IFN-gamma by ELISA.
Bone marrow-derived DC from BALB/c were incubated with OVA Class II peptide (5 μg). […] Purified CD4+ T cells from D011.10 OVA-TCR Tg mice were stimulated with the DC (10:1) and supernatants were removed 3 days after antigen stimulation and IL-10 and IFNgamma quantified by ELISA (FIG. 12).

B16 tumour cells [8] = assay: Therapeutic DC vaccine pulsed with B16 cells with or without CpG and p38 inhibitor; assay type: in vivo, C57BL/6 mice; settings: for protective efficacy of tumour vaccine (tumour volumes): 5×10^5 DC days 3, 10 and 17
From the text: Tumour growth was routinely monitored. Results represent tumour volumes for individual mice (FIG. 29).
Tumour growth was routinely monitored. Results represent tumour volumes for individual mice (FIG. 30).
Mice were routinely monitored for survival. Numbers in parentheses represent statistical difference versus control group (FIG. 31).

CD80 on CD11c+ DC = assay: CD80 expression on DC (cytofluorometric analysis); assay type: cell-based; settings: HSP70 vaccine 5 mg/ml, NS398 5 mM, 24 hours, gated on CD11c+
Protocol: Bone marrow derived DC were incubated with medium only (Control), HSP70 vaccine (5 mg/ml), the Cox-2 inhibitor NS398 (5 mM), HSP70 and Cox-2 inhibitor or LPS (10 ng/ml). After 24 hours cells were labelled with anti-CD80 and CD11C antibodies and cytofluorometric analysis performed. Results represent mean fluorescence intensity (MFI) on cells that were gated on the CD11c+ DC population (FIG. 24).

bone marrow-derived DC [9] = assay: CpG-stimulated DC with Cox-2 inhibitor NS-398, cytokine ELISA; assay type: cell-based, C57BL/6 mice
Protocol: as §1

bone marrow-derived DC [10] = assay: CpG-stimulated DC with Cox-2 inhibitor NS-398, cytokine mRNA RT-PCR; assay type: cell-based, C57BL/6 mice
[11] = test system: draining lymph node cells; assay: Immunisation with KLH and TLR ligands, antigen-specific cytokine production by lymph node cells (ELISA); assay type: in vivo, BALB/c mice; settings: s.c. KLH 5 μg alone or with adjuvant; lymph node cells day 7, KLH 50 μg/ml, 3 days
[12] = CpG 5 μg with inhibitor (U0126 5 μM or NS-398)
[13] = CpG 10 μg alone or with various concentrations of NS-398, 24 h
[14] = CpG 10 μg alone or with NS-398 1 or 10 μM, 24 h

Compound: Pam3CSK4
- IL-10 production from DC [1]: induced production
- IL-12p40 production from DC [1]: induced production
- IL-12p70 production from DC [1]: induced production

Compound: Cc1ccc(-c2cc(C(F)(F)F)nn2-c2ccc(S(N)(=O)=O)cc2)cc1 [Celecoxib]
- mice survived (B16 tumour cells [2]): 20%

Compound: N#CC(=C(/N)Sc1ccccc1N)/C(C#N)=C(\N)Sc1ccccc1N [U0126]
- induction of IFN-gamma-secreting T cells (Th1) in vivo [3]: suppressed
- induction of IL-10 secreting T cells in vivo [3]: suppressed
- TLR-ligand induced ERK phosphorylation (ERK): inhibited
- CpG-induced PGE2 production by dendritic cells [4, 12]: reverses
- enhancement of IL-12p70 production in DC from IL-10−/− mice (bone marrow-derived DC [5]; data not shown): retained
- IL-10 production from CpG-ODN- or LPS-stimulated DC (bone marrow-derived DC [5]): suppressed
- IL-12p70 production from TLR ligand-stimulated DC (bone marrow-derived DC [5]): enhanced

Compound: C[S+]([O-])c1ccc(-c2nc(-c3ccncc3)c(-c3ccc(F)cc3)[nH]2)cc1 (stereo not shown) [SB203580]
- CpG-induced IL-10 production by dendritic cells (bone marrow-derived DC [6]): reverses
- IL-12 production by dendritic cells (bone marrow-derived DC [6]): enhancing
- IL-23 production (bone marrow-derived DC [6]): not affected
- IFN-gamma responses (spleen mononuclear cells): enhanced
- IL-10 responses (spleen mononuclear cells): reduced
- induction of IFN-gamma-secreting T cells (Th1) in vivo [3]: enhanced
- induction of IL-10 secreting T cells in vivo [3]: suppressing
- local IL-1 beta in the lungs (IL-1 beta in lungs): enhanced
- protective efficacy against B. pertussis challenge (Bordetella pertussis): significantly enhances
- induction of IFN-gamma-secreting T cells [7]: enhanced
- induction of IL-10 secreting T cells [7]: suppressed
- survival of mice (B16 tumour cells [8]; DC activated with killed whole B16 cells alone or with CpG 5 μg, SB 203580 5 μM, days 3, 10 and 17): enhances survival
- protective efficacy of tumour vaccine (tumour volumes) (B16 tumour cells [8]; DC activated with killed whole B16 cells and CpG 5 μg, SB203580 5 μM): enhances
- protective efficacy of tumour vaccine (tumour volumes) (B16 tumour cells [8]; DC activated with killed whole B16 cells, SB 203580 5 μM): enhances
- CpG-induced PGE2 production by dendritic cells ([4]; DC treated with heat shocked and irradiated B16 cells 4 hours, CpG 5 μg, SB 203580 5 μM): reverses
- IL-10 production from CpG-ODN- or LPS-stimulated DC (bone marrow-derived DC [5]): inhibited
- IL-12p70 production from TLR ligand-stimulated DC (bone marrow-derived DC [5]): enhanced

Compound: Flagellin
- IL-10 production from DC [1]: induced production
- IL-12p40 production from DC [1]: induced production
- IL-12p70 production from DC [1]: induced production

Compound: CS(=O)(=O)Nc1ccc([N+](=O)[O-])cc1OC1CCCCC1 [NS-398]
- induction of IFN-gamma-secreting T cells (Th1) in vivo [3]: enhanced
- induction of IL-10 secreting T cells in vivo [3]: suppressing
- CD80 expression (mean fluorescence intensity) (CD80 on CD11c+ DC): neither Cox-2 nor HSP70 alone enhanced
- CpG-induced PGE2 production by dendritic cells [4, 12]: reverses
- CpG-induced IL-10 production by dendritic cells (bone marrow-derived DC [9]; CpG 5 μg with NS-398, 24 h): reverses
- IL-10 production by DC (bone marrow-derived DC [9]; [13]): suppressed
- IL-12p40 (IL-12) production by DC (bone marrow-derived DC [9]; [13]): enhanced
- IL-12p35 mRNA expression in DC (bone marrow-derived DC [10]; [14]): enhanced
- IL-12p40 mRNA expression in DC (bone marrow-derived DC [10]; [14]): enhanced
- IL-27p28 mRNA expression in DC (bone marrow-derived DC [10]; [13]): enhanced
- CpG-induced IL-10 mRNA expression in DC (bone marrow-derived DC [10]; CpG 10 μg with NS-398, 24 h): suppressed

Compound: lipopolysaccharide [LPS]
- time for which LPS-induced ERK phosphorylation was still evident (ERK; LPS 100 ng/ml, 0.5-12 h): up to 8 hours
- time of maximal LPS-induced ERK phosphorylation (ERK; LPS 100 ng/ml, 0.5-12 h): 30 min
- IL-10 production from DC [1]: induced production
- IL-12p40 production from DC [1]: induced production
- IL-12p70 production from DC [1]: induced production
- KLH-specific IFN-gamma production [11]: high concentrations
- KLH-specific IL-4 production [11]: low or undetectable
